PMC4890880 (ACS infectious diseases, 2016)
pIC50: −log10 of the molar value. Read-outs that look alike come from different tables or passages of the source.

How the values were obtained:
[1] = system: Plasmodium berghei (Pb-Luc) exoerythrocytic-stage parasites; conditions: for normalized signal at concentration 10 / normalized signal at concentration 0.000508053 / normalized signal at concentration 0.00152416 / normalized signal at concentration 0.00457247 / normalized signal at concentration 0.0137174 / normalized signal at concentration 0.0411523 / normalized signal at concentration 0.123457 / normalized signal at concentration 0.37037 / normalized signal at concentration 1.11111 / normalized signal at concentration 3.33333: fraction of control
HepG2-A16-CD81EGFP cells [2] = conditions: for HepG2 Tox% @ 50 uM rep1: human
[3] = system: Plasmodium berghei (Pb-Luc) exoerythrocytic-stage parasites; assay: microbe, parasite or virus in culture
HepG2-A16-CD81EGFP cells [4] = assay: cells; conditions: Homo sapiens, HepG2, read-out: % inhibition
[5] = sheet 2nd round, maximal inhibition in dose response
[6] = read-out: Inhibition% @ 50 uM rep1
[7] = read-out: Inhibition% @ 50 uM rep2

Q: What does the source list for `C[C@@H]1CN([C@@H](C)CO)C(=O)c2cccc(NC(=O)c3ccc(-c4nccs4)cc3)c2O[C@H]1CN(C)C(=O)Nc1ccc(C(F)(F)F)cc1` [BRD-K97485207-001-01-1]?
A: normalized signal at concentration 10 ([1]; first series of dose-response columns): 0.53; normalized signal at concentration 0.000508053 ([1]; first series): 0.80; normalized signal at concentration 0.00152416 ([1]; first series): 0.94; normalized signal at concentration 0.00457247 ([1]; first series): 0.89; normalized signal at concentration 0.0137174 ([1]; first series): 0.64; normalized signal at concentration 0.0411523 ([1]; first series): 0.84; normalized signal at concentration 0.123457 ([1]; first series): 1.04; normalized signal at concentration 0.37037 ([1]; first series): 0.85; normalized signal at concentration 1.11111 ([1]; first series): 0.73; normalized signal at concentration 3.33333 ([1]; first series): 0.73; pIC50 ([1]; read-out: PbLuc_IC50, sheet 2nd round, Broad compounds, dose response): < 5.00; normalized signal at concentration 10 ([1]; second series of dose-response columns): 0.66; normalized signal at concentration 0.000508053 ([1]; second series): 0.85; normalized signal at concentration 0.00152416 ([1]; second series): 0.90; normalized signal at concentration 0.00457247 ([1]; second series): 0.80; normalized signal at concentration 0.0137174 ([1]; second series): 0.89; normalized signal at concentration 0.0411523 ([1]; second series): 0.77; normalized signal at concentration 0.123457 ([1]; second series): 0.77; normalized signal at concentration 0.37037 ([1]; second series): 0.95; normalized signal at concentration 1.11111 ([1]; second series): 0.95; normalized signal at concentration 3.33333 ([1]; second series): 0.97; PbLuc_max_inhibition (%) [1, 5]: 47%; pIC50 (HepG2-A16-CD81EGFP cells [2]; read-out: Tox_IC50, sheet 2nd round, HepG2 cytotoxicity): < 5.00; Tox_max_inhibition (%) (HepG2-A16-CD81EGFP cells [2]; [5]): 6.47%

Q: For `CCOc1ccc(Nc2c3ccccc3nc3ccccc23)cc1` [MMV000304], which “HepG2 Tox% @ 50 uM rep1” value (HepG2-A16-CD81EGFP cells [2]) is on record?
A: The value was 102%.

Q: And the inhibition at 50 µM [3, 6]?
A: Its inhibition at 50 µM is 104%.

Q: What about the inhibition at 50 µM [3, 7] of the same compound?
A: The inhibition at 50 µM was 104%.

Q: For `CCn1c2c(c(=N)c3c1CCC3)CCCC2` [MMV000340], which inhibition at 50 µM (HepG2-A16-CD81EGFP cells [4]) is on record?
A: Its inhibition at 50 µM is 75.3%.

Q: What about the inhibition at 50 µM [3, 6] of the same compound?
A: Its inhibition at 50 µM is 102%.

Q: What about the inhibition at 50 µM [3, 7] of the same compound?
A: Its inhibition at 50 µM is 102%.

Q: Which inhibition at 50 µM (HepG2-A16-CD81EGFP cells [4]) does the source give for `CCOc1ccc2c(c1)CN(Cc1ccc(Cl)cc1)CO2` [MMV000443] here?
A: The inhibition at 50 µM was 95.5%.

Q: And the inhibition at 50 µM [3, 6]?
A: Its inhibition at 50 µM is 102%.

Q: And the inhibition at 50 µM [3, 7]?
A: Its inhibition at 50 µM is 104%.

Q: `CCCCCn1c(=N)n(CC(O)COc2cccc(C)c2)c2ccccc21` (stereo not drawn) [MMV000444] was tested. Which “HepG2 Tox% @ 50 uM rep1” value (HepG2-A16-CD81EGFP cells [2]) did it give?
A: The value was 100%.

Q: What about the inhibition at 50 µM [3, 6] of the same compound?
A: Its inhibition at 50 µM is 102%.

Q: And the inhibition at 50 µM [3, 7]?
A: The inhibition at 50 µM was 103%.

Q: Which “HepG2 Tox% @ 50 uM rep1” value (HepG2-A16-CD81EGFP cells [2]) does the source give for `CCOc1cc2c(cc1OCC)C(c1cc(Cl)ccc1O)NCC2` (stereo not drawn) [MMV000478] here?
A: The value was 101%.

Q: And the inhibition at 50 µM [3, 6]?
A: Its inhibition at 50 µM is 103%.

Q: And the inhibition at 50 µM [3, 7]?
A: The inhibition at 50 µM was 104%.

Q: Which results are given for `COc1ccc(-c2cc(=O)oc3c4c(ccc23)OCN(Cc2ccc(F)cc2)C4)cc1` [MMV000604]?
A: inhibition at 50 µM (HepG2-A16-CD81EGFP cells [4]): 57.1%; inhibition at 50 µM [3, 6]: 100%; inhibition at 50 µM [3, 7]: 101%

Q: Which inhibition at 50 µM (HepG2-A16-CD81EGFP cells [4]) does the source give for `COc1ccc(C(O)(CCC(C)C)C(CN2CCOCC2)c2ccc(Cl)cc2)cc1` (stereo not drawn) [MMV000617] here?
A: Its inhibition at 50 µM is 98.4%.

Q: What about the inhibition at 50 µM [3, 6] of the same compound?
A: Its inhibition at 50 µM is 103%.

Q: And the inhibition at 50 µM [3, 7]?
A: The inhibition at 50 µM was 103%.

Q: `CCCCC(O)(c1ccc(Cl)cc1)C(CN1CCOCC1)c1ccc(Cl)cc1` (stereo not drawn) [MMV000619] was tested. Which “HepG2 Tox% @ 50 uM rep1” value (HepG2-A16-CD81EGFP cells [2]) did it give?
A: Its value is 97%.

Q: And the inhibition at 50 µM [3, 6]?
A: The inhibition at 50 µM was 99%.

Q: What about the inhibition at 50 µM [3, 7] of the same compound?
A: Its inhibition at 50 µM is 100%.

Q: Which results are given for `CCCCCCC(O)(c1ccc(F)cc1)C(CN1CCOCC1)c1ccccc1` (stereo not drawn) [MMV000621]?
A: inhibition at 50 µM (HepG2-A16-CD81EGFP cells [4]): 98.1%; inhibition at 50 µM [3, 6]: 104%; inhibition at 50 µM [3, 7]: 103%

Q: How did the “HepG2 Tox% @ 50 uM rep1” value (HepG2-A16-CD81EGFP cells [2]) turn out when `OC(CNCc1ccccc1)Cn1c2ccccc2c2ccccc21` (stereo not drawn) [MMV000839] was run?
A: The value was 99%.

Q: What about the inhibition at 50 µM [3, 6] of the same compound?
A: Its inhibition at 50 µM is 101%.

Q: What about the inhibition at 50 µM [3, 7] of the same compound?
A: Its inhibition at 50 µM is 100%.

Q: How did the “HepG2 Tox% @ 50 uM rep1” value (HepG2-A16-CD81EGFP cells [2]) turn out when `OCCNc1nc(Nc2ccc(Cl)c(Cl)c2)nc2ccccc12` [MMV001041] was run?
A: Its value is 98%.

Q: And the inhibition at 50 µM [3, 6]?
A: Its inhibition at 50 µM is 99%.

Q: And the inhibition at 50 µM [3, 7]?
A: The inhibition at 50 µM was 101%.

Q: Which results are given for `COc1ccc2sc(N(Cc3cccnc3)C(=O)c3ccc(C#N)cc3)nc2c1` [MMV001239]?
A: inhibition at 50 µM (HepG2-A16-CD81EGFP cells [4]): 63.2%; inhibition at 50 µM [3, 6]: 73%; inhibition at 50 µM [3, 7]: 85%

Q: Which results are given for `O=C1c2ccccc2C2=Nc3ccccc3SC(c3cccc(F)c3)C12` (stereo not drawn) [MMV006389]?
A: inhibition at 50 µM (HepG2-A16-CD81EGFP cells [4]): 96.2%; inhibition at 50 µM [3, 6]: 102%; inhibition at 50 µM [3, 7]: 103%

Q: `CCOc1ccc2nc(C)cc(Nc3ccc(Br)cc3)c2c1` [MMV006522] was tested. Which inhibition at 50 µM (HepG2-A16-CD81EGFP cells [4]) did it give?
A: Its inhibition at 50 µM is 98.8%.

Q: And the inhibition at 50 µM [3, 6]?
A: The inhibition at 50 µM was 102%.

Q: And the inhibition at 50 µM [3, 7]?
A: Its inhibition at 50 µM is 104%.

Q: How did the “HepG2 Tox% @ 50 uM rep1” value (HepG2-A16-CD81EGFP cells [2]) turn out when `CN(C)CCNc1cc(-c2ccccc2)nc2ccccc12` [MMV006704] was run?
A: Its value is 96%.

Q: And the inhibition at 50 µM [3, 6]?
A: The inhibition at 50 µM was 95%.

Q: And the inhibition at 50 µM [3, 7]?
A: The inhibition at 50 µM was 97%.

Q: What does the source list for `CCOc1c(Br)cc(C2C(C(=O)OC)=CN(C)C=C2C(=O)OC)cc1OC` [MMV006764]?
A: inhibition at 50 µM (HepG2-A16-CD81EGFP cells [4]): 31.2%; inhibition at 50 µM [3, 6]: 103%; inhibition at 50 µM [3, 7]: 103%

Q: Which results are given for `COc1ccc(Nc2cc(C)nc(NCc3ccccc3)n2)cc1` [MMV006825]?
A: HepG2 Tox% @ 50 uM rep1 (HepG2-A16-CD81EGFP cells [2]): 97%; inhibition at 50 µM [3, 6]: 100%; inhibition at 50 µM [3, 7]: 100%

Q: What does the source list for `CCOC(=O)c1cnc2ccc(Cl)cc2c1NCCCN(C)C` [MMV006882]?
A: HepG2 Tox% @ 50 uM rep1 (HepG2-A16-CD81EGFP cells [2]): 99%; inhibition at 50 µM [3, 6]: 99%; inhibition at 50 µM [3, 7]: 102%

Q: `CCOc1ccc2nc(C)cc(Nc3ccc(N(C)C)cc3)c2c1` [MMV007020] was tested. Which “HepG2 Tox% @ 50 uM rep1” value (HepG2-A16-CD81EGFP cells [2]) did it give?
A: Its value is 97%.

Q: What about the inhibition at 50 µM [3, 6] of the same compound?
A: The inhibition at 50 µM was 100%.

Q: What about the inhibition at 50 µM [3, 7] of the same compound?
A: Its inhibition at 50 µM is 101%.

Q: Which results are given for `OC1=C2C(=Nc3ccccc3SC2c2ccc(Br)cc2)c2ccccc21` (stereo not drawn) [MMV007127]?
A: inhibition at 50 µM (HepG2-A16-CD81EGFP cells [4]): 64.3%; inhibition at 50 µM [3, 6]: 103%; inhibition at 50 µM [3, 7]: 103%
